Patent US11306092B2, “Amino indole compounds useful as TLR inhibitors” (BRISTOL-MYERS SQUIBB COMPANY, priority 2017, dated 2022)
pIC50: −log10 of the molar value.

Key:
Assay type in all cases: cell-based
human TLR7 = molecular target: T1, human TLR7 (Homo sapiens, UniProt Q9NYK1); assay: TLR7 inhibition reporter assay (HEK-Blue SEAP reporter); settings: HEK-Blue cells overexpressing human TLR7; gardiquimod 7.5 μM; 22 hour incubation
T1 construct: host or cells: HEK-Blue cells
T1 sequence (Q9NYK1 27-1049): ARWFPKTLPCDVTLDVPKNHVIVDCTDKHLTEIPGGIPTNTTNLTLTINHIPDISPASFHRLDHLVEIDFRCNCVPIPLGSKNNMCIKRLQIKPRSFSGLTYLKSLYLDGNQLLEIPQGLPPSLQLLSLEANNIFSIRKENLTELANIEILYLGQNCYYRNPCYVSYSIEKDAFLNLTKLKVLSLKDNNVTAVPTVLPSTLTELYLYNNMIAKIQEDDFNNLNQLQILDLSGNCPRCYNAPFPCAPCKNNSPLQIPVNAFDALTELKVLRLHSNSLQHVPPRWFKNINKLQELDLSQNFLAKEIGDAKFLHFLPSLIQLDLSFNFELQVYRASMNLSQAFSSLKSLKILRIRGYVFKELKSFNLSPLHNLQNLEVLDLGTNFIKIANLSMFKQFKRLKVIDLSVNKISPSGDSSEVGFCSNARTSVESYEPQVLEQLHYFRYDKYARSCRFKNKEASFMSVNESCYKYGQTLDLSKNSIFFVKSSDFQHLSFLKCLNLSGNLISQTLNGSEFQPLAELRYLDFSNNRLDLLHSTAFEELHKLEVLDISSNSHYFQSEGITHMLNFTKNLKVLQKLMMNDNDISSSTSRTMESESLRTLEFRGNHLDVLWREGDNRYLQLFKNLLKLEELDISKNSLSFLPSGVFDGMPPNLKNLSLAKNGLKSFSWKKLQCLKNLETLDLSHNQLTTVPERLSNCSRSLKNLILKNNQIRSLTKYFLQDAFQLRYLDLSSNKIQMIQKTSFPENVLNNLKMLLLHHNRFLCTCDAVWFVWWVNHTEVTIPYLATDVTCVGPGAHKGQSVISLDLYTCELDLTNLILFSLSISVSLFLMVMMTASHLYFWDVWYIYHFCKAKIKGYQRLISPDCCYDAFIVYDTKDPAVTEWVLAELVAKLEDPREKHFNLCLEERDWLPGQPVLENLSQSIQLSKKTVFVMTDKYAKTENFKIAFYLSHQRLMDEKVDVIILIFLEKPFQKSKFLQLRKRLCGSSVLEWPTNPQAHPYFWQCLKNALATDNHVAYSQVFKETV
Method in brief: (§1)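 Compound treatment: 30 min, RT, 0.05 nM–50 μM final. Agonist: TLR7 gardiquimod 7.5 μM; TLR8 R848 15.9 μM; TLR9 ODN2006 5 nM. Incubation 22 h, 37 °C, 5% CO2. Readout SEAP, HEK-Blue Detection.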

human TLR8 = molecular target: T2, human TLR8 (Homo sapiens, UniProt Q9NR97); assay: TLR8 inhibition reporter assay (HEK-Blue SEAP reporter); settings: HEK-Blue cells overexpressing human TLR8; R848 15.9 μM; 22 hour incubation
T2 construct: host or cells: HEK-Blue cells
T2 sequence (Q9NR97 27-1041): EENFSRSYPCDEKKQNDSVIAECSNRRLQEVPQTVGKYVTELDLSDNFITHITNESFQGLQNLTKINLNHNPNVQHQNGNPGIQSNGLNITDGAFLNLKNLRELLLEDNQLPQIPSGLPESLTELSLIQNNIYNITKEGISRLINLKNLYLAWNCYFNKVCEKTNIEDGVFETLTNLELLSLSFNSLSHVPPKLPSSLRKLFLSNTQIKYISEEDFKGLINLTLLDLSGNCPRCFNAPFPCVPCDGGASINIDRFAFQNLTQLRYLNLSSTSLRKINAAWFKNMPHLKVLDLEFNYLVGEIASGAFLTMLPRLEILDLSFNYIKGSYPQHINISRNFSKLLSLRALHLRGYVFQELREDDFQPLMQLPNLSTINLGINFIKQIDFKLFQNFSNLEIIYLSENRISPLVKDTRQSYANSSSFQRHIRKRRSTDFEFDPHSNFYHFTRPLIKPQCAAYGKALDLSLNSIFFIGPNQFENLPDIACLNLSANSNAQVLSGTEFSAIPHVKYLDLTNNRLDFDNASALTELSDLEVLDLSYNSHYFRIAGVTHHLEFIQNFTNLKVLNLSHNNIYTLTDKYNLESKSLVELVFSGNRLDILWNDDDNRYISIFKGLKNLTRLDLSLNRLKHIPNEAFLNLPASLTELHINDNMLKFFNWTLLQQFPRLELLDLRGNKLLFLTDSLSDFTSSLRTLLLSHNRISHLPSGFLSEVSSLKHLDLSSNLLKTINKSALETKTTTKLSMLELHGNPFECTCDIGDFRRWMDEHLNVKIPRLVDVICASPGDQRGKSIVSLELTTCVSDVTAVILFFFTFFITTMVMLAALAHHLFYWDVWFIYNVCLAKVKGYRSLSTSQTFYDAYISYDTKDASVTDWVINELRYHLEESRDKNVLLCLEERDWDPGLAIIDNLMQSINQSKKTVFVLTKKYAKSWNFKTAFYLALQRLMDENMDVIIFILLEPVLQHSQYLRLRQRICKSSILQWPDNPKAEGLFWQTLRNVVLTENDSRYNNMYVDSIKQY
Method in brief: as §1

human TLR9 = molecular target: T3, human TLR9 (Homo sapiens, UniProt Q9NR96); assay: TLR9 inhibition reporter assay (HEK-Blue SEAP reporter); settings: HEK-Blue cells overexpressing human TLR9; ODN2006 5 nM; 22 hour incubation
T3 construct: host or cells: HEK-Blue cells
T3 sequence (Q9NR96 26-1032): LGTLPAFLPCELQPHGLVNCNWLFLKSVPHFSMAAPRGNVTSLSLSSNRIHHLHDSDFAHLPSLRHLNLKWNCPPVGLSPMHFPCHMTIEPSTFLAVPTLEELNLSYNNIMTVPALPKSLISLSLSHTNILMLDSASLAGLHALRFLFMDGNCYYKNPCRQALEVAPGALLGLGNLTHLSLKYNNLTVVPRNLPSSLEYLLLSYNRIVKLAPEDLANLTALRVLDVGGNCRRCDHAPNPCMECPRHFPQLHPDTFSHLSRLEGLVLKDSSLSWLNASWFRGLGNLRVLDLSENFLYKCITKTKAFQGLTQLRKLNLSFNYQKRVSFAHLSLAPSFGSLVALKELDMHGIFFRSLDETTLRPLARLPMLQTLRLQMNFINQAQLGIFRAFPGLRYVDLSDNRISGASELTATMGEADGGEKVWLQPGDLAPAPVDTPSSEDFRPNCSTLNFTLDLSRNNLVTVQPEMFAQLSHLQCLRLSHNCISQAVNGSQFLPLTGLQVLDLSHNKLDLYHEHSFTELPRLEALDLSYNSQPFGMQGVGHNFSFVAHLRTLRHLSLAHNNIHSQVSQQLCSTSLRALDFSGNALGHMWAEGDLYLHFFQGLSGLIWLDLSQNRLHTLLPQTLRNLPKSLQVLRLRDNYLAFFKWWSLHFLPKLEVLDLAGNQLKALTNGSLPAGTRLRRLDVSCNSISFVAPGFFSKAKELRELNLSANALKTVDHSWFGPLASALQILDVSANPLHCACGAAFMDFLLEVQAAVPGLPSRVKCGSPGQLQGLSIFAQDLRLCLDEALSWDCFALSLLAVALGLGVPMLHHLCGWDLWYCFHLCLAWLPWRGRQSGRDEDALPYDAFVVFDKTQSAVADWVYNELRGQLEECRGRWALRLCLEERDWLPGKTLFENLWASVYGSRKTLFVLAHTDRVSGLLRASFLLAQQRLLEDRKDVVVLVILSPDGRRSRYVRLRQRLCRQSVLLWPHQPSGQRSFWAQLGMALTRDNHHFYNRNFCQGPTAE
Method in brief: as §1

CCc1c(-c2ccnc(C)c2)[nH]c2ccc(N3CCN(C4CCN(CC)CC4)CC3)cc12 [Example 142, 3-ethyl-5-(4-(1-ethylpiperidin-4-yl)piperazin-1-yl)-2-(2-methylpyridin-4-yl)-1H-indole]
pIC50 (human TLR7): 5.44
pIC50 (human TLR8): 5.10
pIC50 (human TLR9): 6.65

CCc1c(-c2ccnc(OC)c2)[nH]c2ccc(N3CCN(C4CCN(C)CC4)CC3)cc12 [Example 143, 3-ethyl-2-(2-methoxypyridin-4-yl)-5-(4-(1-methylpiperidin-4-yl)piperazin-1-yl)-1H-indole]
pIC50 (human TLR7): 7.12
pIC50 (human TLR8): 8.00
pIC50 (human TLR9): 6.08

CCc1c(-c2ccc(OC)c(OC)c2)[nH]c2cc(C)c(N3CCN(CCNC)CC3)cc12 [Example 144, 2-(4-(2-(3,4-dimethoxyphenyl)-3-ethyl-6-methyl-1H-indol-5-yl)piperazin-1-yl)-N-methylethan-1-amine]
pIC50 (human TLR7): 7.35
pIC50 (human TLR8): 7.35
pIC50 (human TLR9): 6.02

C#CCCCN1CCN(c2ccc3[nH]c(-c4ccc(OC)c(OC)c4)c(C(C)C)c3c2)CC1 [Example 146, 2-(3,4-dimethoxyphenyl)-3-isopropyl-5-(4-(pent-4-yn-1-yl)piperazin-1-yl)-1H-indole]
pIC50 (human TLR7): 6.69
pIC50 (human TLR8): 7.92
pIC50 (human TLR9): 5.71

CCc1c(-c2ccnc(C)c2)[nH]c2ccc(N3CCN(C4CCN(C(C)C)CC4)CC3)cc12 [Example 147, 3-ethyl-5-(4-(1-isopropylpiperidin-4-yl)piperazin-1-yl)-2-(2-methylpyridin-4-yl)-1H-indole]
pIC50 (human TLR7): 5.33
pIC50 (human TLR8): 4.75
pIC50 (human TLR9): 6.64

CCc1c(-c2ccnc(OC)c2)[nH]c2ccc(N3CCN(C4CCN(CC)CC4)CC3)cc12 [Example 148, 3-ethyl-5-(4-(1-ethylpiperidin-4-yl)piperazin-1-yl)-2-(2-methoxypyridin-4-yl)-1H-indole]
pIC50 (human TLR7): 7.02
pIC50 (human TLR8): 7.49
pIC50 (human TLR9): 6.35

COc1ccc(-c2[nH]c3ccc(N4CCN(C5CCN(C)CC5)CC4)cc3c2C)cc1OC [Example 149, 2-(3,4-dimethoxyphenyl)-3-methyl-5-(4-(1-methylpiperidin-4-yl)piperazin-1-yl)-1H-indole]
pIC50 (human TLR7): 6.17
pIC50 (human TLR8): 7.21
pIC50 (human TLR9): 6.14

CCc1c(-c2ccc(OC)c(OC)c2)[nH]c2ccc(N3CCN(CCNC)CC3(C)C)cc12 [Example 150, 2-(4-(2-(3,4-dimethoxyphenyl)-3-ethyl-1H-indol-5-yl)-3,3-dimethylpiperazin-1-yl)-N-methylethan-1-amine]
pIC50 (human TLR7): 6.44
pIC50 (human TLR8): 6.99
pIC50 (human TLR9): 6.37

Cc1c(-c2ccnc3[nH]ccc23)[nH]c2ccc(N3CCN(C4CCN(C(C)C)CC4)CC3)cc12 [Example 151, 4-(5-(4-(1-isopropylpiperidin-4-yl)piperazin-1-yl)-3-methyl-1H-indol-2-yl)-1H-pyrrolo[2,3-b]pyridine]
pIC50 (human TLR7): 5.37
pIC50 (human TLR8): 4.32
pIC50 (human TLR9): 6.49

CCc1c(-c2ccnc(OC)c2)[nH]c2ccc(N3CCN(C4CCN(C(C)C)CC4)CC3)cc12 [Example 153, 3-ethyl-5-(4-(1-isopropylpiperidin-4-yl)piperazin-1-yl)-2-(2-methoxypyridin-4-yl)-1H-indole]
pIC50 (human TLR7): 7.08
pIC50 (human TLR8): 7.96
pIC50 (human TLR9): 6.12

CCc1c(-c2ccc(OC)c(OC)c2)[nH]c2ccc(N3CCN(C4CCN(C)CC4)CC3)cc12 [Example 154, 2-(3,4-dimethoxyphenyl)-3-ethyl-5-(4-(1-methylpiperidin-4-yl)piperazin-1-yl)-1H-indole]
pIC50 (human TLR7): 7.10
pIC50 (human TLR8): 7.85
pIC50 (human TLR9): 6.08

CCc1c(-c2cc(OC)nc(OC)c2)[nH]c2ccc(N3CCN(C4CCN(C)CC4)CC3)cc12 [Example 156, 2-(2,6-dimethoxypyridin-4-yl)-3-ethyl-5-(4-(1-methylpiperidin-4-yl)piperazin-1-yl)-1H-indole]
pIC50 (human TLR7): 7.28
pIC50 (human TLR8): 8.18
pIC50 (human TLR9): 6.22

CCc1c(-c2ccnc3[nH]ccc23)[nH]c2ccc(N3CCN(C4CCN(C(C)C)CC4)CC3)cc12 [Example 157, 4-(3-ethyl-5-(4-(1-isopropylpiperidin-4-yl)piperazin-1-yl)-1H-indol-2-yl)-1H-pyrrolo[2,3-b]pyridine]
pIC50 (human TLR7): 5.37
pIC50 (human TLR8): 6.20
pIC50 (human TLR9): 6.25

Cc1c(-c2ccnc3[nH]ccc23)[nH]c2ccc(N3CCN(C4CCN(CC(C)C)CC4)CC3)cc12 [Example 158, 4-(5-(4-(1-isobutylpiperidin-4-yl)piperazin-1-yl)-3-methyl-H-indol-2-yl)-1H-pyrrolo[2,3-b]pyridine]
pIC50 (human TLR7): 4.90
pIC50 (human TLR8): 4.34
pIC50 (human TLR9): 6.70

CCc1c(-c2ccnc3[nH]ncc23)[nH]c2ccc(N3CCN(C4CCN(C(C)C)CC4)CC3)cc12 [Example 159, 4-(3-ethyl-5-(4-(1-isopropylpiperidin-4-yl)piperazin-1-yl)-1H-indol-2-yl)-1H-pyrazolo[3,4-b]pyridine]
pIC50 (human TLR7): 5.25
pIC50 (human TLR8): 5.22
pIC50 (human TLR9): 6.16
